The source of these data is patent publication US10035790B2, “RORγ modulators” (BRISTOL-MYERS SQUIBB COMPANY, priority 2012, dated 2018).

For the assay, the target named is T1, ligand binding domain of human RORγ (A262-S507) (Homo sapiens, UniProt P51449).
T1 construct: made in house; host or cells: E. coli
T1 sequence (P51449 262-507): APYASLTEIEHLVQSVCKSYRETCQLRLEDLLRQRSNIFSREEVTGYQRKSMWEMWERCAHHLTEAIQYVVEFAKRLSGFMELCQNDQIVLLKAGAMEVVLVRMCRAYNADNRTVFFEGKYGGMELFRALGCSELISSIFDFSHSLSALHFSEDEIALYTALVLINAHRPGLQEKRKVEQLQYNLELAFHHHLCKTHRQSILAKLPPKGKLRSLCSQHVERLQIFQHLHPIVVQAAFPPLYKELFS
Briefly: General RORγ SPA binding assay (competition with [3H]25-hydroxycholesterol). The settings on record: RORγ SPA binding assay, inhibition of [3H]25-hydroxycholesterol binding; read-out: IC50. In outline:
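Scintillation counts from copper His-tag SPA beads (4 mg/mL, 30 min) gave percent inhibition of radioligand binding, from which IC50 values are derived. The E. coli-expressed His-tagged domain (50 nM) is first exposed to compound for 15 min at room temperature in PBS containing 0.5% fatty acid free BSA.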
Regarding `COC(=O)C(C)(CNc1ccnc(C(F)(F)F)n1)c1cnc(C)nc1C1CCN(C(=O)Cc2c(F)cccc2F)CC1` (stereo not drawn) [Compound F4, Methyl 2-(4-(1-(2-(2,6-difluorophenyl)acetyl)piperidin-4-yl)-2-methylpyrimidin-5-yl)-2-methyl-3-(2-(trifluoromethyl)pyrimidin-4-ylamino)propanoate], the IC50 (in general, the concentration needed to halve the response being measured) came to 195 nM. Under `Cc1ncc(C(C)(CO)CNc2ccnc(C(F)(F)F)n2)c(C2CCN(C(=O)Cc3c(F)cccc3F)CC2)n1` (stereo not drawn) [Compound F5, 2-(2,6-Difluorophenyl)-1-(4-(5-(1-hydroxy-2-methyl-3-(2-(trifluoromethyl)pyrimidin-4-ylamino)propan-2-yl)-2-methylpyrimidin-4-yl)piperidin-1-yl)ethanone] stands 101 nM; under `Cc1cc(C)cc(CNCc2cnc(C)nc2C2CCN(C(=O)Cc3c(F)cccc3F)CC2)c1` [Compound F6, 2-(2,6-Difluorophenyl)-1-(4-(5-((3,5-dimethylbenzylamino)methyl)-2-methylpyrimidin-4-yl)piperidin-1-yl)ethanone], 44.2 nM; under `Cc1cc(C)cc(CNC(c2cnc(C)nc2C2CCN(C(=O)Cc3c(F)cccc3F)CC2)C(F)(F)F)c1` (stereo not drawn) [Compound F7, 2-(2,6-Difluorophenyl)-1-(4-(5-(1-(3,5-dimethylbenzylamino)-2,2,2-trifluoroethyl)-2-methylpyrimidin-4-yl)piperidin-1-yl)ethanone], 9.8 nM.

With `Cc1ncc(C(C)(C)CNc2ccnc(C(F)(F)F)n2)c(C2CCN(C(=O)Nc3c(F)cccc3F)CC2)n1` [Compound F8, N-(2,6-Difluorophenyl)-4-(2-methyl-5-(2-methyl-1-(2-(trifluoromethyl)pyrimidin-4-ylamino)propan-2-yl)pyrimidin-4-yl)piperidine-1-carboxamide], the IC50 was 1340 nM. Under `Cc1cc(C)cc(CNC(C)c2cnc(C)nc2C2CCN(C(=O)Cc3c(F)cccc3F)CC2)c1` (stereo not drawn) [Compound F9, 2-(2,6-Difluorophenyl)-1-(4-(5-(1-(3,5-dimethylbenzylamino)ethyl)-2-methylpyrimidin-4-yl)piperidin-1-yl)ethanone] stands 29.9 nM; under `Cc1ncc(C(=O)NNc2cccc(Cl)c2)c(C2CCN(C(=O)Cc3c(F)cccc3F)CC2)n1` [Compound G1, N-(3-Chlorophenyl)-4-(1-(2-(2,6-difluorophenyl)acetyl)piperidin-4-yl)-2-methylpyrimidine-5-carbohydrazide], 9.6 nM. Under `O=C(NNc1cccc(Cl)c1)c1cnc(C2CC2)nc1C1CCN(C(=O)Cc2c(F)cccc2F)CC1` [Compound G2, N′-(3-chlorophenyl)-2-cyclopropyl-4-(1-(2-(2,6-difluorophenyl)acetyl)piperidin-4-yl)pyrimidine-5-carbohydrazide] stands 4.6 nM.

Take `CCc1ncc(C(=O)NNc2cccc(Cl)c2)c(C2CCN(C(=O)Cc3c(F)cccc3F)CC2)n1` [Compound G3, N′-(3-chlorophenyl)-4-(1-(2-(2,6-difluorophenyl)acetyl)piperidin-4-yl)-2-ethylpyrimidine-5-carbohydrazide]: the IC50 stood at 8.1 nM. Under `Cc1nc(C)c(C(=O)NNc2cccc(Cl)c2)c(C2CCN(C(=O)Cc3c(F)cccc3F)CC2)n1` [Compound G4, N′-(3-chlorophenyl)-4-(1-(2-(2,6-difluorophenyl)acetyl)piperidin-4-yl)-2,6-dimethylpyrimidine-5-carbohydrazide] stands 12.1 nM.

Take `Cc1ncc(C(=O)NOc2cccc(C(F)(F)F)c2)c(C2CCN(C(=O)Cc3c(F)cccc3F)CC2)n1` [Compound H1, 4-{1-[(2,6-Difluorophenyl)acetyl]piperidin-4-yl}-2-methyl-N-{[3-(trifluoromethyl)-phenyl]oxy}pyrimidine-5-carboxamide]: the IC50 worked out at 327 nM. Under `Cc1cc(C)cc(ONC(=O)c2cnc(C)nc2C2CCN(C(=O)Cc3c(F)cccc3F)CC2)c1` [Compound H2, 4-(1-(2-(2,6-difluorophenyl)acetyl)piperidin-4-yl)-N-(3,5-dimethylphenoxy)-2-methylpyrimidine-5-carboxamide] stands 49 nM.

Regarding `Cc1ncc(C(=O)NOc2cccc(Cl)c2)c(C2CCN(C(=O)Cc3c(F)cccc3F)CC2)n1` [Compound H3, N-(3-chlorophenoxy)-4-(1-(2-(2,6-difluorophenyl)acetyl)piperidin-4-yl)-2-methylpyrimidine-5-carboxamide], the IC50 turned out to be 84 nM. Under `Cc1ncc(C(=O)NOc2cccc(OC(F)(F)F)c2)c(C2CCN(C(=O)Cc3c(F)cccc3F)CC2)n1` [Compound H4, 4-(1-(2-(2,6-difluorophenyl)acetyl)piperidin-4-yl)-2-methyl-N-(3-(trifluoromethoxy)phenoxy)pyrimidine-5-carboxamide] stands 294 nM; under `Cc1nc(C)c(C(=O)NOc2cccc(Cl)c2)c(C2CCN(C(=O)Cc3c(F)cccc3F)CC2)n1` [Compound H5, N-(3-chlorophenoxy)-4-(1-(2-(2,6-difluorophenyl)acetyl)piperidin-4-yl)-2,6-dimethylpyrimidine-5-carboxamide], 503 nM. Under `Cc1ncc(C(=O)NOc2cc(F)cc(Cl)c2)c(C2CCN(C(=O)Cc3c(F)cccc3F)CC2)n1` [Compound H6, N-(3-chloro-5-fluorophenoxy)-4-(1-(2-(2,6-difluorophenyl)acetyl)piperidin-4-yl)-2-methylpyrimidine-5-carboxamide] stands 1630 nM; under `Cc1ncc(C(=O)NOc2ccccc2)c(C2CCN(C(=O)Cc3c(F)cccc3F)CC2)n1` [Compound H7, 4-(1-(2-(2,6-difluorophenyl)acetyl)piperidin-4-yl)-2-methyl-N-phenoxypyrimidine-5-carboxamide], 1750 nM; under `Cc1nc(C2CCN(C(=O)Cc3c(F)cccc3F)CC2)c(C(=O)NCc2cccc(C(F)(F)F)n2)c(=O)[nH]1` [Compound I1, 4-{1-[(2,6-Difluorophenyl)acetyl]piperidin-4-yl}-2-methyl-6-oxo-N-{[6-(trifluoromethyl)pyridin-2-yl]methyl}-1,6-dihydropyrimidine-5-carboxamide], 40.3 nM. Under `Cc1nc(NCc2ccnc(C(F)(F)F)c2)c(C(=O)NCc2ccnc(C(F)(F)F)c2)c(C2CCN(C(=O)Cc3c(F)cccc3F)CC2)n1` [Compound I2, 4-{1-[(2,6-Difluorophenyl)acetyl]piperidin-4-yl}-2-methyl-N-{[2-(trifluoromethyl)pyridin-4-yl]methyl}-6-({[2-(trifluoromethyl)pyridin-4-yl]methyl}amino)pyrimidine-5-carboxamide] stands 71 nM. On to `Cc1cc(C)cc(CNC(=O)c2c(C3CCN(C(=O)Cc4c(F)cccc4F)CC3)nc(C)[nH]c2=O)c1` [Compound I3, 4-(1-(2-(2,6-Difluorophenyl)acetyl)piperidin-4-yl)-N-(3,5-dimethylbenzyl)-2-methyl-6-oxo-1,6-dihydropyrimidine-5-carboxamide], for which the IC50 turned out to be 10.7 nM. Under `Cc1nc(C2CCN(C(=O)Cc3c(F)cccc3F)CC2)c(C(=O)NCc2cccc(Cl)c2)c(=O)[nH]1` [Compound I4, N-(3-chlorobenzyl)-4-(1-(2-(2,6-difluorophenyl)acetyl)piperidin-4-yl)-2-methyl-6-oxo-1,6-dihydropyrimidine-5-carboxamide] stands 10.9 nM; under `Cc1nc(C2CCN(C(=O)Cc3c(F)cccc3F)CC2)c(C(=O)NCc2ccnc(C(F)(F)F)c2)c(=O)[nH]1` [Compound I5, 4-(1-(2-(2,6-difluorophenyl)acetyl)piperidin-4-yl)-2-methyl-6-oxo-N-((2-(trifluoromethyl)pyridin-4-yl)methyl)-1,6-dihydropyrimidine-5-carboxamide], 69.3 nM; under `Cc1nc(C2CCN(C(=O)Cc3c(F)cccc3F)CC2)c(/C=N/Oc2cccc(C(F)(F)F)c2)c(=O)[nH]1` [Compound I6, (E)-4-(1-(2-(2,6-Difluorophenyl)acetyl)piperidin-4-yl)-2-methyl-6-oxo-1,6-dihydropyrimidine-5-carbaldehyde O-3-(trifluoromethyl)phenyl oxime], 60.9 nM. Turning to `Cc1nc(C2CCN(C(=O)Cc3c(F)cccc3F)CC2)c(C(=O)NCc2cccc(C(F)(F)F)n2)c(=O)n1C` [Compound I7, 4-(1-(2-(2,6-Difluorophenyl)acetyl)piperidin-4-yl)-1,2-dimethyl-6-oxo-N-((6-(trifluoromethyl)pyridin-2-yl)methyl)-1,6-dihydropyrimidine-5-carboxamide], the IC50 is 654 nM.

As for `CCn1c(C)nc(C2CCN(C(=O)Cc3c(F)cccc3F)CC2)c(C(=O)NCc2cccc(C(F)(F)F)n2)c1=O` [Compound I8, 4-(1-(2-(2,6-Difluorophenyl)acetyl)piperidin-4-yl)-1-ethyl-2-methyl-6-oxo-N-((6-(trifluoromethyl)pyridin-2-yl)methyl)-1,6-dihydropyrimidine-5-carboxamide], the IC50 came out at 2290 nM. Under `Cc1cc(C)cc(C/C=C\c2cnc(C)nc2C2CCN(C(=O)Cc3c(F)cccc3F)CC2)c1` [Compound J2, (Z)-2-(2,6-Difluorophenyl)-1-(4-(5-(3-(3,5-dimethylphenyl)prop-1-enyl)-2-methylpyrimidin-4-yl)piperidin-1-yl)ethanone] stands 28 nM; under `Cc1cc(C)cc(CCCc2cnc(C)nc2C2CCN(C(=O)Cc3c(F)cccc3F)CC2)c1` [Compound J3, 2-(2,6-Difluorophenyl)-1-(4-(5-(3-(3,5-dimethylphenyl)propyl)-2-methylpyrimidin-4-yl)piperidin-1-yl)ethanone], 7.7 nM.
